Data reported in patent US20250084056A1, “SUBSTITUTED OXOISOINDOLINYL PIPERIDINE-2,6-DIONE COMPOUNDS” (BRISTOL-MYERS SQUIBB COMPANY, priority 2023, published 2025).

Experiments:
Type in all cases: cell-based
Phospho-Rb (Ser807/811) = assay: Phospho-Retinoblastoma (pRB) Cellular Assay; conditions: Homo sapiens, OVCAR-3, NIH OVCAR3 cells, 24 hours; for IC50: concentration giving 50% response; for Emax: maximum response, reference compound at 10 μM = 100%, read-out: pRB Ymax
Method: Phospho-Retinoblastoma (pRB) Cellular Assay
NIH OVCAR3 (HTB-161, American Type Culture Collection, Manassas VA) cells were grown up to passage 10 in culture media made up of RPMI (11835-030 Gibco, Grand Island NY), 20% HI FBS (16140-071, Gibco, Grand Island NY), and 0.01 mg/mL insulin from bovine pancreas (I6634-1G, Sigma Aldrich, St. Louis, MO).
The cells were seeded in a 384-well CulturPlate (6007688, Perkin Elmer, Waltham MA) at a density of 10,000 cells/well in 20 μL of the above culture media and incubated overnight at 37° C. and 5% CO2.
The next day, cells were treated using an Echo 650 (Beckman Coulter, Indianapolis IN) acoustic dispenser with 40 nL of compounds dissolved in DMSO at the appropriate serial dilutions (10 mM to […]). Cells were then incubated for 24 hours as above.
After 24 hours elapsed, media was removed from each well and shortly after 20 μL of the following mix was added: 12 μL deionized water, 4 μL lysis buffer, 4 μL of reconstituted antibody mix, and 1:100 phosphatase inhibitor. These components belong to the Phospho-Rb (Ser807/811) Cellular Kit (64RBS807PEY, Perkin Elmer, Waltham MA).
Plates were sealed and incubated away from light at room temperature for at least 4 hours before reading them on an EnVision plate reader (Perkin Elmer, Waltham MA) according to the kit manufacturer's protocol. The reference compound, N-(5-{[(5-tert-butyl-1,3-oxazol-2-yl)methyl]sulfanyl}-1,3-thiazol-2-yl)piperidine-4-carboxamide, at 10 μM was used to define 100% response. Assay results for each compound were reported as IC50, the concentration giving 50% response, and Ymax, the maximum response observed with the compound.

GSPT1 = GSPT1 (Homo sapiens, UniProt P15170+Q96SW2); assay: GSPT1 Cellular Degradation Assay (DF15-GSPT1-ePL); set-up: expressed in transfected cells; conditions: DF15-GSPT1-ePL cells, 20 hours
Excerpt: DF15-GSPT1-ePL was used for intracellular GSPT1 protein degradation detection in form of chemiluminescent signal, which was built on a human DF15 cell line (CVCL_Y429) with conditional co-expression of chimeric GSPT1 (target) and ePL/donor (enhanced ProLabel® by DiscoverX for enzyme fragment complementation with donor-acceptor pairing). The cells used the culture medium in two arrangements for assay and maintenance. During assay, it used Core-RPMI 1640 medium with 10% Fetal Bovine Serum (Heat Inactivated) and 1× Penicillin/Streptomycin; and during passage maintenance, used added ingredients: 0.1 mM NEAA, 1 mM sodium pyruvate, 25 mM Hepes, 0.1% Pluronic F-68, 1× Glutamin, 4 μg/mL Blasticidin (selection agent). Detection was performed on a 1536 well tissue culture plate (Corning #3727) with cells seeded in 3.5 μL core-RPMI 1640 at density of 0.25 million/mL after the pre-titrated test compounds in DMSO on ECHO plate were dispensed onto the assay plate by use of ECHO (liquid handing system via acoustic energy from Labcyte). Assay incubation lasted 20 hours in 37° C. incubator with 5% CO2; then followed by 30 minutes of plate-cooling at room temperature; then detection-reagent-mix was added in 3.5 μL/well with pre-defined proportion of enzyme acceptor, substrate, and lysis buffer. Plate signal reading for luminescence on an EnVision plate reader (PerkinElmer) was conducted after 60 minutes of former step at room temperature. Raw data was collected and processed with Dotmatics (data analyzer) for test compound's potency values. The reference compound, 3-[5-(3,6-dimethoxyisoquinolin-1-yl)-1-oxo-2,3-dihydro-1H-isoindol-2-yl]piperidine-2,6-dione, at […] was used to define 75% response. Assay results for each compound were reported as DC50, the concentration giving 50% response, and Dmax, the maximum response observed with the compound.

Cyclin E1 = Cyclin E1 (Homo sapiens, UniProt P24864+Q96SW2); assay: Cyclin E1 Cellular Degradation Assay (MSD); set-up: endogenous in cells; host or cells: OVCAR3; conditions: for DC50 / Dmax: Cyclin E1 cellular degradation; for Dmax: maximum degradation; for Ratio of GSPT1 DC50/Cyclin E1 DC50: selectivity for degradation of Cyclin E1 over GSPT1
Method: Culturing cells: On Day 0, OVCAR3 cells were plated at 15,000 cells/well in 40 μL of culture medium (RPMI1640, 20% FBS, 0.01 insulin, 1% Anti/Anti) in a 384 well cell culture plate. Cell cultures were incubated for 24 hours at 37° C. and 5% CO2.
Coating MSD plates: On Day 1, rabbit anti-CCNE1 antibody (Abcam ab33911, 1 μg/mL in DPBS, […]) was dispensed to a Meso Scale Discovery plate (MSD L21XA). The MSD plate was spun briefly to ensure the solution coated the bottom of the well and incubated overnight at 4° C. On Day 2, the plate was washed 3 times with TBS +0.2% TWEEN, blocked for 1 hour with 3% MSD Blocker A (MSD R93AA-1, 30 μL/well), then washed again 3 times with TBS+0.2% TWEEN.
Treating and lysing cells: On Day 1, compounds of interest were dispensed into the cell cultures by acoustic dispensing technology. The cell cultures were then spun at 400 g for 4 minutes to disperse the compounds and incubated at 37° C. and 5% CO2 for 24 hours. After incubation, 40 μL of DPBS was added to the cell cultures to dilute the media. All liquid was gently discarded and immediately replaced with 30 μL of lysis buffer (MSD Tris Lysis buffer (MSD R60TX-2), Halt Protease inhibitor (ThermoFisher 78438), Phosphatase Inhibitor II (Sigma-Aldrich P5726), Phosphatase Inhibitor III (Sigma-Aldrich P0044), 0.02M PMSF (Sigma-Aldrich 7626), 0.1% SDS (VWR E719-100ML)). The plate was then sealed, shaken at 300 rpm at room temperature for 5 minutes, and freeze-thawed for optimum cell lysis.
Collecting data: After thawing, 25 μL of lysate was transferred to a coated MSD plate. The plate was then sealed and shaken at 300 rpm overnight in 4° C. On Day 3, the MSD plate was washed 3 times with TBS+0.2% TWEEN. Mouse anti-CCNE1 antibody (Abcam ab238081, 0.5 μg/mL in 1% MSD Blocker A, 10 μL/well) dispensed to the MSD plate, which was then sealed and shaken at room temperature for 3 hours. After the first antibody incubation, the plate was washed 3 times with TBS+0.2% TWEEN, then goat anti-mouse Sulfo-Tag antibody (MSD R32AC, 1 μg/mL in 1% MSD Blocker A, 10 μL/well) was dispensed to the MSD plate. The plate was sealed again and shaken at room temperature for 1 hour, then washed 3 times with TBS+0.2% TWEEN. After the final wash, 35 μL of 1× Read Buffer (MSD R92TC-1) was added to each well and the data was captured using the MSD plate reader. The reference compound, [2-(2,6-dioxopiperidin-3-yl)-4-methoxy-3-oxo-2,3-dihydro-1H-isoindol-5-yl]methyl N-[4-(3,4-difluorophenoxy)phenyl]carbamate, at […] was used to define […]. Assay results for each compound were reported as DC50, the concentration giving 50% response, and Dmax, the maximum response observed with the compound.

Cyclin E1, sequence (P24864 whole entry): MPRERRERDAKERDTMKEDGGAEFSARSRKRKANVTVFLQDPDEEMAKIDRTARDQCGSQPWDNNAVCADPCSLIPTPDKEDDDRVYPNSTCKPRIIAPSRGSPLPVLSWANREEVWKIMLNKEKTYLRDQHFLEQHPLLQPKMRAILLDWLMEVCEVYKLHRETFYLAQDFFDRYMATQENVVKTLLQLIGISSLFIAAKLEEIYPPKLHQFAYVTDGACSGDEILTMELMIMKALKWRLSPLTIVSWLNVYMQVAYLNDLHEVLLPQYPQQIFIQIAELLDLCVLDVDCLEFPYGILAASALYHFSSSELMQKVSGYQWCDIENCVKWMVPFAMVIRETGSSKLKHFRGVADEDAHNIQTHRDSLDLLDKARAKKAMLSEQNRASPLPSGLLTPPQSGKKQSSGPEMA
Cyclin E1, sequence (Q96SW2 whole entry): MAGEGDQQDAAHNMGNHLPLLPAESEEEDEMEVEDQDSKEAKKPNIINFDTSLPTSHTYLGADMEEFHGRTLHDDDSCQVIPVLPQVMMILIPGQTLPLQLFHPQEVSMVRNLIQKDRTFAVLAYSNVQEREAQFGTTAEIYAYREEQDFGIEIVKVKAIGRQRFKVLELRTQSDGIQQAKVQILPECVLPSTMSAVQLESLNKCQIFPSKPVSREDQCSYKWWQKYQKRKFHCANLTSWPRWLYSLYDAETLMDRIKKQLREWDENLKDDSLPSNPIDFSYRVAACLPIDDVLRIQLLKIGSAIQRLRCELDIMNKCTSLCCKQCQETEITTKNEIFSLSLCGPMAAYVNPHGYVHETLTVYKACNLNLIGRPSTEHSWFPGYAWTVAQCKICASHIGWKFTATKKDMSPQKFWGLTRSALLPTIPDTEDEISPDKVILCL
Cyclin E1, sequence (Q16531 whole entry partner): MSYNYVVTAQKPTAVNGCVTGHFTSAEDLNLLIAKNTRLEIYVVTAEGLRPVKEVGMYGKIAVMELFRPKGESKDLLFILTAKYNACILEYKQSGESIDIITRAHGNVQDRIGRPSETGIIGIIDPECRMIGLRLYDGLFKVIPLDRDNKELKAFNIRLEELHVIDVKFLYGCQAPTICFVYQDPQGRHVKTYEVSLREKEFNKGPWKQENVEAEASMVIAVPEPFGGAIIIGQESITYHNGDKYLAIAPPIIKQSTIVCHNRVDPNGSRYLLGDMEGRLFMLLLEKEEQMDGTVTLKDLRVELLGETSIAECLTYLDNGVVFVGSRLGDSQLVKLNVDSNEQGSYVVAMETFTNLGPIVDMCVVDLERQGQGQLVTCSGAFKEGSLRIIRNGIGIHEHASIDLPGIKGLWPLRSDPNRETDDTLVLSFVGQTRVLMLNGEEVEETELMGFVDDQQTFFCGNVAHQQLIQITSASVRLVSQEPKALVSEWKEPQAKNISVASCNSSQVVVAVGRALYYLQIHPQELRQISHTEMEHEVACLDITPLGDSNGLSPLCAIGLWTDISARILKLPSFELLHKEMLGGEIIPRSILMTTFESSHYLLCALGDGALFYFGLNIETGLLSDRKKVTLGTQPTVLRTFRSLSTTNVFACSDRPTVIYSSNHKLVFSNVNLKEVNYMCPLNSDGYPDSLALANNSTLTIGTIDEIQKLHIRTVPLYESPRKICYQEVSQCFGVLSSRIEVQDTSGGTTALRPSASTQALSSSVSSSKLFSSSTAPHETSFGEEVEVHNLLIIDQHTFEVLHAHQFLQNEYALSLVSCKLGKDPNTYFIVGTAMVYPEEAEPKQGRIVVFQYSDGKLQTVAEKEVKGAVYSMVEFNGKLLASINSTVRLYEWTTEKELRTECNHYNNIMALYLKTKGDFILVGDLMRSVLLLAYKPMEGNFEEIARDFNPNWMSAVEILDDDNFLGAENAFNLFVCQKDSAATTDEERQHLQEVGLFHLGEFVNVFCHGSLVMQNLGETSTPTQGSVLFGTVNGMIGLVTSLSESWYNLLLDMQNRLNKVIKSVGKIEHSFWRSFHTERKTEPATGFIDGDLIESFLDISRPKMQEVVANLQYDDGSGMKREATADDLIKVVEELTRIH
GSPT1, sequence (P15170 whole entry, the tested form may be a part): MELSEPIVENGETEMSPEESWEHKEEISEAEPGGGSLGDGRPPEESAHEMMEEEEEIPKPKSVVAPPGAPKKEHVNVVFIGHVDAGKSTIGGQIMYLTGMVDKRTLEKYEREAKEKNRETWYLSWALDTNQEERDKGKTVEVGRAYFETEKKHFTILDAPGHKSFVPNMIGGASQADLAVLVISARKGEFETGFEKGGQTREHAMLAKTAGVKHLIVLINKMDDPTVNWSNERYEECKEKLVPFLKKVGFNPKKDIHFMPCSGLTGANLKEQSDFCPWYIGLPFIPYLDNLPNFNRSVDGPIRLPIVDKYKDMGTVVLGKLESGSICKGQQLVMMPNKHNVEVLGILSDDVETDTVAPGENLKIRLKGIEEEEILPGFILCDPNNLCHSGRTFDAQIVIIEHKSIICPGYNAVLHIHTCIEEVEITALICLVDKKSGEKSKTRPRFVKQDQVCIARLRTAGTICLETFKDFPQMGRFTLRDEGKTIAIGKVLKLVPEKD
GSPT1, sequence (Q96SW2 whole entry, the tested form may be a part): as the sequence (Q96SW2 whole entry) above
GSPT1, sequence (Q16531 whole entry partner, the tested form may be a part): as the sequence (Q16531 whole entry partner) above

Row | SMILES | IC50 (Phospho-Rb (Ser807/811)) [nM] | DC50 (GSPT1) [nM] | Dmax (GSPT1) [%] | DC50 (Cyclin E1) [nM] | Dmax (Cyclin E1) [%] | Ratio of GSPT1 DC50/Cyclin E1 DC50 (Cyclin E1) | Emax (Phospho-Rb (Ser807/811)) [%]
1 | COc1c(COC(=O)Nc2ccc(Oc3ccc(F)c(F)c3)cc2)ccc2c1C(=O)N([C@@H]1CCC(=O)NC1=O)C2 (single isomer, unassigned) [Example 36] | 339 | > 14000 | 28 | 257 | 108 | >54 | 98
2 | CC(C)Oc1c(COC(=O)Nc2ccc(Oc3ccc(F)c(F)c3)cc2)ccc2c1C(=O)N([C@H]1CCC(=O)NC1=O)C2 (single isomer, unassigned) [Example 125] | 98 | > 14000 | 7 | 263 | 107 | >53 | 138
3 | COc1c(COC(=O)Nc2ccc(Oc3ccc(F)c(F)c3)cc2)ccc2c1C(=O)N(C1CCC(=O)NC1=O)C2 (centres unmarked) [Example 1, [2-(2,6-dioxopiperidin-3-yl)-4-methoxy-3-oxo-2,3-dihydro-1H-isoindol-5-yl]methyl N-[4-(3,4-difluorophenoxy)phenyl]carbamate] | 133 | > 14000 | 27 | 199 | 110 | >70 | 104
4 | COc1c(COC(=O)Nc2ccc(Oc3ccccc3)cc2)ccc2c1C(=O)N(C1CCC(=O)NC1=O)C2 (centres unmarked) [Example 2, [2-(2,6-dioxopiperidin-3-yl)-4-methoxy-3-oxo-2,3-dihydro-1H-isoindol-5-yl]methyl N-(4-phenoxyphenyl)carbamate] | 83 | > 14000 | 32 | 78 | 108 | >180 | 123
5 | COc1c(COC(=O)Nc2ccc(Oc3cccc(Cl)c3)cc2)ccc2c1C(=O)N(C1CCC(=O)NC1=O)C2 (centres unmarked) [Example 3, [2-(2,6-dioxopiperidin-3-yl)-4-methoxy-3-oxo-2,3-dihydro-1H-isoindol-5-yl]methyl N-[4-(3-chlorophenoxy)phenyl]carbamate] | 103 | > 14000 | 34 | 91 | 112 | >153 | 120
6 | COc1c(COC(=O)Nc2ccc(Oc3cccc(F)c3)cc2)ccc2c1C(=O)N(C1CCC(=O)NC1=O)C2 (centres unmarked) [Example 4, [2-(2,6-dioxopiperidin-3-yl)-4-methoxy-3-oxo-2,3-dihydro-1H-isoindol-5-yl]methyl N-[4-(3-fluorophenoxy)phenyl]carbamate] | 89 | > 14000 | 35 | 39 | 108 | >355 | 109
7 | COc1c(COC(=O)Nc2ccc(Oc3ccc(F)cc3F)cc2)ccc2c1C(=O)N(C1CCC(=O)NC1=O)C2 (centres unmarked) [Example 5, [2-(2,6-dioxopiperidin-3-yl)-4-methoxy-3-oxo-2,3-dihydro-1H-isoindol-5-yl]methyl N-[4-(2,4-difluorophenoxy)phenyl]carbamate] | 3 | > 14000 | 33 | 299 | 118 | >47 | 131
8 | O=C1CCC(N2Cc3ccc(COC(=O)Nc4ccc(Oc5ccc(F)cc5Cl)cc4)c(O[C@@H]4CCOC4)c3C2=O)C(=O)N1 (stereo partly drawn) [Example 155, [2-(2,6-dioxopiperidin-3-yl)-3-oxo-4-[(3R)-oxolan-3-yloxy]-2,3-dihydro-1H-isoindol-5-yl]methyl N-[4-(2-chloro-4-fluorophenoxy)phenyl]carbamate] | 188 |  |  | 176 | 100 |  | 116

Second part, led by results:

Row | IC50 (Phospho-Rb (Ser807/811)) [nM] | DC50 (GSPT1) [nM] | Dmax (GSPT1) [%] | DC50 (Cyclin E1) [nM] | Dmax (Cyclin E1) [%] | Ratio of GSPT1 DC50/Cyclin E1 DC50 (Cyclin E1) | SMILES | Emax (Phospho-Rb (Ser807/811)) [%]
9 | 39 |  |  | 101 | 103 |  | O=C1CCC(N2Cc3ccc(COC(=O)Nc4ccc(Oc5cccc(F)c5F)cc4)c(O[C@@H]4CCOC4)c3C2=O)C(=O)N1 (stereo partly drawn) [Example 156, [2-(2,6-dioxopiperidin-3-yl)-3-oxo-4-[(3R)-oxolan-3-yloxy]-2,3-dihydro-1H-isoindol-5-yl]methyl N-[4-(2,3-difluorophenoxy)phenyl]carbamate] | 116
10 | 65 |  |  | 116 | 99 |  | O=C1CCC(N2Cc3ccc(COC(=O)Nc4ccc(Oc5ccc(F)cc5F)cc4)c(O[C@@H]4CCOC4)c3C2=O)C(=O)N1 (stereo partly drawn) [Example 157, [2-(2,6-dioxopiperidin-3-yl)-3-oxo-4-[(3R)-oxolan-3-yloxy]-2,3-dihydro-1H-isoindol-5-yl]methyl N-[4-(2,4-difluorophenoxy)phenyl]carbamate] | 119
11 | 175 |  |  | 74 | 104 |  | O=C1CCC(N2Cc3ccc(COC(=O)Nc4ccc(Oc5cccc(Cl)c5)cc4)c(O[C@@H]4CCOC4)c3C2=O)C(=O)N1 (stereo partly drawn) [Example 158, [2-(2,6-dioxopiperidin-3-yl)-3-oxo-4-[(3R)-oxolan-3-yloxy]-2,3-dihydro-1H-isoindol-5-yl]methyl N-[4-(3-chlorophenoxy)phenyl]carbamate] | 109
